How the values were obtained:
EGFR (d746-750/T790M) = molecular target: T1, EGFR (d746-750/T790M) (Homo sapiens, UniProt P00533, DEL746-750/T790M); assay: EGFR (d746-750/T790M) kinase inhibitory activity; format: biochemical; settings: ATP 1.5 μM
T1 construct: purchased Carna Biosciences, Inc
Procedure: (§1) Among the materials of the inhibitory activity measurement, the substrate peptide and the kinase protein were obtained as follows. A peptide with biotinylated N-terminus (biotin-EEPLYWSFPAKKK) was synthesized with reference to FL-Peptide 22, a reagent for LabChip® series of PerkinElmer, Inc. For the kinase protein, a purified recombinant human EGFR (T790M/L858R) protein of Carna Biosciences, Inc. was purchased.
(§2) The inhibitory activity measurement was performed as follows. The compounds of the present invention were individually dissolved in dimethyl sulfoxide (DMSO), and serial dilutions of these compounds were prepared using DMSO. Subsequently, a solution containing the substrate peptide (final concentration: 250 nM), magnesium chloride (final concentration: 10 mM), manganese chloride (final concentration: 10 mM), and ATP (final concentration: 1 μM) in a buffer solution for kinase reaction (Carna Biosciences, Inc.) was mixed with the dilutions of the compounds (final concentration of DMSO upon kinase reaction: 2.5%) or DMSO (final concentration: 2.5%). EGFR (T790M/L858R) protein was further added thereto, and the mixtures were incubated at 25° C. for 120 minutes to carry out a kinase reaction. EDTA was added thereto to a final concentration of 24 mM to thereby terminate the reaction. A phosphorylated thyrosine detection solution containing europium (Eu)-labeled anti-phosphorylated tyrosine antibody PT66 (PerkinElmer, Inc.) and SureLight APC-SA (PerkinElmer, Inc.) was added to the reaction mixtures, and the mixtures were allowed to stand at room temperature for 2 hours or more. For the background, a sample to which EDTA was added before addition of EGFR (T790M/L858R) protein was incubated at 25° C. for 120 minutes, using DMSO instead of the DMSO solution of the compound. The detection solution was also added to this sample, and the mixture was allowed to stand for 2 hours or more. Finally, for all of the test samples, the amount of fluorescence at the time of irradiation of excitation light having a wavelength of 337 nm was measured at dual wavelengths of 620 nm and 665 nm by PHERAstar FS (BMG LABTECH), and a ratio of the fluorescence amounts at the two wavelengths was obtained as data.
(§3) Based on the above rates, phosphorylation inhibition rates (%) were calculated for the samples to which various concentrations of the compound solutions were added. Finally, the obtained reaction inhibition rates (%) at the respective concentrations were plotted for each compound, and the IC50 value (nM), which is a compound concentration at which phosphorylation by EGFR (T790M/L858R) is inhibited by 50%, was determined using XLfit curve-fitting software (IDBS).
The inhibitory activities of the compounds of the present invention against EGFR (d746-750/T790M) kinase activity were measured.
The materials, the measurement method, and the data analysis method were substantially the same as those shown in the above description regarding “Measurement of EGFR (T790M/L858R) Kinase Inhibitory Activity,” except that a purified recombinant human EGFR (d746-750/T790M) protein purchased from Carna Biosciences, Inc. was used as the kinase protein, and the measurement was performed with an ATP final concentration of 1.5 μM. Finally, the IC50 value (nM) of each compound with respect to EGFR (d746-750/T790M) was determined by data analysis.

[1] = tested on: A431 expressing EGFR (WT); assay: Growth inhibition, A431 expressing EGFR (WT); format: cell-based; settings: Homo sapiens, A-431, 72 h; cultured three days, CellTiter-Glo
Procedure: (§4) (1) A human […] lung cancer cell line NCI-H1975 expressing EGFR (T790M/L858R), (2) a human non-small cell lung cancer cell line HCC827 expressing EGFR (d746-750), and (3) a human epithelioid cancer cell line A431 expressing EGFR (WT) were each suspended in complete growth medium recommended by ATCC. The cell suspensions were seeded in each well of a 384-well flat microplate or a 96-well flat plate, and cultured in an incubator containing 5% carbon dioxide gas at 37° C. for one day. Each compound of the present invention was dissolved in DMSO, and serial dilutions of the test compound were prepared using DMSO (to a concentration 500 times the final concentration). The DMSO solution of the test compound or DMSO was diluted with complete growth medium, and the resulting solution was added to each well of the cell culture plate so that the final concentration of DMSO was 0.2%. Then, the cells were cultured in an incubator containing 5% carbon dioxide gas at 37° C. for three days. The number of cells was measured before the addition of the DMSO solution of the test compound, as well as after addition and culture by using a CellTiter-Glo Assay® (produced by Promega) according to a protocol recommended by Promega.
(§5) For each cell, the cell growth inhibition rates of the wells to which the test compounds at various concentrations were added were calculated by the following formula. Then, the obtained inhibition rates (%) at the respective concentrations were plotted for each test compound, and the GI50 value (nM), which is a test compound concentration at which the cell growth can be inhibited by 50%, was determined using XLfit curve-fitting software (IDBS). • Cell Growth Inhibition Rate (%)=(C−T)/(C−CO)×100 • T: Luminescence intensity of well cultured for three days after addition of the test compound solution • C: Luminescence intensity of well cultured for three days after addition of DMSO • C0: Luminescence intensity of well before addition of the test compound solution

EGFR (L858R) = molecular target: T2, EGFR (L858R) (Homo sapiens, UniProt P00533, L858R); assay: EGFR (L858R) kinase inhibitory activity; format: biochemical; settings: ATP 4 μM
T2 construct: purchased Carna Biosciences, Inc
Procedure: as §1, §2, §3
The inhibitory activities of the compounds of the present invention against EGFR (L858R) kinase activity were measured.
The materials, the measurement method, and the data analysis method were substantially the same as those shown in the above description regarding “Measurement of EGFR (T790M/L858R) Kinase Inhibitory Activity,” except that a purified recombinant human EGFR (L858R) protein purchased from Carna Biosciences, Inc. was used as the kinase protein, and the measurement was performed with ATP at a final concentration of 4 μM. Finally, the IC50 value (nM) of each compound with respect to EGFR (L858R) was determined by data analysis.

EGFR (T790M/L858R) = molecular target: T3, EGFR (T790M/L858R) (Homo sapiens, UniProt P00533, L858R/T790M); assay: EGFR (T790M/L858R) kinase inhibitory activity; format: biochemical; settings: ATP 1 μM, 25° C. for 120 minutes
T3 construct: purchased Carna Biosciences, Inc
Procedure: The inhibitory activities of the compounds of the present invention against EGFR (T790M/L858R) kinase activity were measured.
as §1, §2, §3

EGFR (WT) = molecular target: T4, EGFR (WT) (Homo sapiens, UniProt P00533); assay: EGFR (WT) kinase inhibitory activity; format: biochemical; settings: substrate peptide 500 nM
T4 construct: expressing a cytoplasmic domain of human EGFR (WT) with its N-terminus fused to a FLAG tag; FLAG (N); made in house; host or cells: insect Sf9 cells, baculovirus expression system
Procedure: as §1, §2, §3
The inhibitory activities of the compounds of the present invention against EGFR (WT) kinase activity were measured.
The materials, the measurement method, and the data analysis method were substantially the same as those shown in the above description regarding “Measurement of EGFR (T790M/L858R) Kinase Inhibitory Activity,” except that a kinase protein prepared by expressing a cytoplasmic domain of human EGFR (WT) with its N-terminus fused to a FLAG tag in insect Sf9 cells using a baculovirus expression system and then purifying it with anti-FLAG antibody agarose (Sigma-Aldrich) was used as the kinase protein, the final concentration of the substrate peptide was 500 nM, and the final concentration of ATP was […]. Finally, the IC50 value (nM) of each compound with respect to EGFR (WT) was determined by data analysis.

[2] = tested on: HCC827 expressing EGFR (d746-750); assay: Growth inhibition, HCC827 expressing EGFR (d746-750); format: cell-based; settings: Homo sapiens, HCC827, 72 h; cultured three days, CellTiter-Glo
Procedure: as §4, §5

[3] = tested on: NCI-H1975 expressing EGFR (T790M/L858R); assay: Growth inhibition, NCI-H1975 expressing EGFR (T790M/L858R); format: cell-based; settings: Homo sapiens, NCI-H1975, 72 h; cultured three days, CellTiter-Glo
Procedure: as §4, §5

EGFR (d746-750) = molecular target: T5, EGFR (d746-750) (Homo sapiens, UniProt P00533, DEL746-750); assay: EGFR (d746-750) kinase inhibitory activity; format: biochemical; settings: ATP 5 μM, kinase reaction 90 minutes
T5 construct: purchased Carna Biosciences, Inc
Procedure: as §1, §2, §3
The inhibitory activities of the compounds of the present invention against EGFR (d746-750) kinase activity were measured.
The materials, the measurement method, and the data analysis method were substantially the same as those shown in the above description regarding “Measurement of EGFR (T790M/L858R) Kinase Inhibitory Activity,” except that a purified recombinant human EGFR (d746-750) protein purchased from Carna Biosciences, Inc. was used as the kinase protein, the measurement was performed with ATP at a final concentration of 5 μM, and the incubation for the kinase reaction was performed for 90 minutes. Finally, the IC50 value (nM) of each compound with respect to EGFR (d746-750) was determined by data analysis.

T2 sequence (P00533 25-1210 L858R): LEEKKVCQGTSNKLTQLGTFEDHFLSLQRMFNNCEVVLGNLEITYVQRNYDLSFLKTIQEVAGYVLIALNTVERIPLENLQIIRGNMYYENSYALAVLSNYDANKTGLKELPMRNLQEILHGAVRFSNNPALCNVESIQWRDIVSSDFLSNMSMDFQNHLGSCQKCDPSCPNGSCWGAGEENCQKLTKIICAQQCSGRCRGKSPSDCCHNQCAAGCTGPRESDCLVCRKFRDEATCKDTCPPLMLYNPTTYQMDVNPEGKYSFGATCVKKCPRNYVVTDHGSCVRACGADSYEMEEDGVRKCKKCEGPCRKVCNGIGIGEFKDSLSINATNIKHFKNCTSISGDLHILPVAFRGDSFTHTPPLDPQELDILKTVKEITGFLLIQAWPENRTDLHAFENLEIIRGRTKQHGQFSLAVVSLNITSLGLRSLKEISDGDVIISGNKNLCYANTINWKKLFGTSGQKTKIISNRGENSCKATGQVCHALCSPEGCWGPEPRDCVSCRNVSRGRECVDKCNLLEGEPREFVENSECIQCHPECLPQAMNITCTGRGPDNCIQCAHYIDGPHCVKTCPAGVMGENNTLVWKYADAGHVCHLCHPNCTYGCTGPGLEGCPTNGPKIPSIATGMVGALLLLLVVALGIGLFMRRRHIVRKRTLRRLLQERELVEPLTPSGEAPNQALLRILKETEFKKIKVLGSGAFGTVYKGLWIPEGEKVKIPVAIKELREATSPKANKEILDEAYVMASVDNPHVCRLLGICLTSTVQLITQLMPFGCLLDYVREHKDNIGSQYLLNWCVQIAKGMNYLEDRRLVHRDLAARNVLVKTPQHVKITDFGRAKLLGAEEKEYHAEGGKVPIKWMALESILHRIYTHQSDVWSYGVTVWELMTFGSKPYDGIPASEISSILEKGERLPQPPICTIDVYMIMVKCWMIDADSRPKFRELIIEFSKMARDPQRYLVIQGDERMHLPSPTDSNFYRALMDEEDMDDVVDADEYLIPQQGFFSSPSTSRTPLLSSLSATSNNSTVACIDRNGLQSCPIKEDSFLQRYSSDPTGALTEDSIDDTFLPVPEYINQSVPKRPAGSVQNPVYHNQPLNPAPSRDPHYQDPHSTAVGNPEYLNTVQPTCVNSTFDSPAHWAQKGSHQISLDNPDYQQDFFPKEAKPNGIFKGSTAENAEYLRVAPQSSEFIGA
T1 sequence (P00533 with tags, fused parts or gaps DEL746-750/T790M limits assumed): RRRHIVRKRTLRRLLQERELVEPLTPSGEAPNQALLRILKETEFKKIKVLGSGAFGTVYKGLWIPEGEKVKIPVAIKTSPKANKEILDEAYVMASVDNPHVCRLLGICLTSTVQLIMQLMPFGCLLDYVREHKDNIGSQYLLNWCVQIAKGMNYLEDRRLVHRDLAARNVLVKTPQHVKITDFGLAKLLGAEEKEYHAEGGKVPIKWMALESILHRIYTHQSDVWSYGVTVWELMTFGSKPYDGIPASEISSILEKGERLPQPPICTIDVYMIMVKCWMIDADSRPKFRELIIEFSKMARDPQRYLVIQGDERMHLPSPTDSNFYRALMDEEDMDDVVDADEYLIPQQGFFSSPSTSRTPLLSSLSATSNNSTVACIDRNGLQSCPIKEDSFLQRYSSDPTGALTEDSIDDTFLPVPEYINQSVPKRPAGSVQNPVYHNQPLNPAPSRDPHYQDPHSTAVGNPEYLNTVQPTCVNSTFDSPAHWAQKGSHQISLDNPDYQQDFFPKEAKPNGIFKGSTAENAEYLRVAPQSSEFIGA
T5 sequence (P00533 with tags, fused parts or gaps DEL746-750 limits assumed): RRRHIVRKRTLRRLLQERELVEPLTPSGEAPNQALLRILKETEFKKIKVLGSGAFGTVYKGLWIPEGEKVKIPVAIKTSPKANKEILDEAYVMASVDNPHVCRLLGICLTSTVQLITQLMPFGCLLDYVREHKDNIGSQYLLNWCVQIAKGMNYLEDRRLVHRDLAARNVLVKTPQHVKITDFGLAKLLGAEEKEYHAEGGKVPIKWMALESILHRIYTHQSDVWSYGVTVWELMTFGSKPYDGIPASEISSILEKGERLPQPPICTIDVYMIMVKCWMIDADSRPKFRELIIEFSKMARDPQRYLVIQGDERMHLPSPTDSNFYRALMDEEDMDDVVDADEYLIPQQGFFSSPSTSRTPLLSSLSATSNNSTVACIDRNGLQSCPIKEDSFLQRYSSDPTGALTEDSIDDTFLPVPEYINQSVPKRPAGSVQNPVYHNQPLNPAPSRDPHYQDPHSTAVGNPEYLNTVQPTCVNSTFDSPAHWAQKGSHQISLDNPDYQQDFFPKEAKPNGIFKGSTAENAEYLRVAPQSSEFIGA
T4 sequence (P00533 669-1210 limits assumed): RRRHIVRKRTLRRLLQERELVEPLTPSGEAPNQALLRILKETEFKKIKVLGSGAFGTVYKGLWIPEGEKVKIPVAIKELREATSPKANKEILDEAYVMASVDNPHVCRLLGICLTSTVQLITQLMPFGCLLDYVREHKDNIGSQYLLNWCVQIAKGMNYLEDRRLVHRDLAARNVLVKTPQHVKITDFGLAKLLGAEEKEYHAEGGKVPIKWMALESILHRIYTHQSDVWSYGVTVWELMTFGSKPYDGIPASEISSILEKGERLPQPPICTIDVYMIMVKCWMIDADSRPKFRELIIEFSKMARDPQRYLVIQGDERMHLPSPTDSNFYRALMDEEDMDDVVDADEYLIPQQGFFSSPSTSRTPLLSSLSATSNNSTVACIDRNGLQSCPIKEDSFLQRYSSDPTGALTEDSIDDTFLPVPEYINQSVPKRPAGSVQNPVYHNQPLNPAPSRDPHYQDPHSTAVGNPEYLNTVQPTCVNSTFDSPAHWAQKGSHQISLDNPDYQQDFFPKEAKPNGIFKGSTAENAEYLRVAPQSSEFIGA
T3 sequence (P00533 25-1210 T790M/L858R): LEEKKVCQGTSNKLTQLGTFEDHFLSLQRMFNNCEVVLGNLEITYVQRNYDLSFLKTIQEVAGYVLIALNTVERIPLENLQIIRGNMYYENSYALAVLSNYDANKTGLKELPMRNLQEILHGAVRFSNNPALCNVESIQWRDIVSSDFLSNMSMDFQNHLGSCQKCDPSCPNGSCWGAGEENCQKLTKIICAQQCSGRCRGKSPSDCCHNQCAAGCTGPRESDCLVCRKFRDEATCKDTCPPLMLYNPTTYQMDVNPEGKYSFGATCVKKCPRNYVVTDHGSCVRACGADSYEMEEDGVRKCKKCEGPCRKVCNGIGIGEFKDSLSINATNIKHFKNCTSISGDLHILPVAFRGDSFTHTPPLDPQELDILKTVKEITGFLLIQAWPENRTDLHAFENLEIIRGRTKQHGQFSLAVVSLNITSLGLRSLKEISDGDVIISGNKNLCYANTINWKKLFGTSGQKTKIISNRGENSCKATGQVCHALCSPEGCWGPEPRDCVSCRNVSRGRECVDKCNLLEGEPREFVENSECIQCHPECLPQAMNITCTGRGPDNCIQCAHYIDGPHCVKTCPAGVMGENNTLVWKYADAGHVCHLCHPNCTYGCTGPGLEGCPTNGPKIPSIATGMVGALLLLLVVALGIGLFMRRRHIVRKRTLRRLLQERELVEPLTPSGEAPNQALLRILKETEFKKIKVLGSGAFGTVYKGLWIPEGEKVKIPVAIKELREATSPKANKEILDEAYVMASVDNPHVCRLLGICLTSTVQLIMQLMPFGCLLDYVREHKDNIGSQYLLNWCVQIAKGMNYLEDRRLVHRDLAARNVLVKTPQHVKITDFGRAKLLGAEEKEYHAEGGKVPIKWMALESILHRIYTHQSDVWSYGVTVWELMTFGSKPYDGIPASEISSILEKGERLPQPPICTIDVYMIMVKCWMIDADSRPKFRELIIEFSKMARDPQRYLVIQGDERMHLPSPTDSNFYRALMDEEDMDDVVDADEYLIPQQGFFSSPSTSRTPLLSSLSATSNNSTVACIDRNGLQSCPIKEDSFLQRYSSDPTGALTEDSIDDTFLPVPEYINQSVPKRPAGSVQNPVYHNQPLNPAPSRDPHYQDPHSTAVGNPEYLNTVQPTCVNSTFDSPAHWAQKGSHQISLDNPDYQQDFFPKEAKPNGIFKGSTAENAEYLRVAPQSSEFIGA

In the case of `C#CC(=O)N[C@@H]1Cn2c(c(-c3cnc4ccccc4c3)c3c(N)ncnc32)C1=C` [Example 8, (S)—N-(4-amino-6-methylene-5-(quinolin-3-yl)-7,8-dihydro-6H-pyrimido[5,4-b]pyrrolizin-7-yl)propiolamide], the IC50 (EGFR (d746-750/T790M)) is reported as < 0.15 nM, the GI50 [1] is reported as 1100 nM and the IC50 (EGFR (L858R)) is reported as < 0.5 nM. For the same molecule, the IC50 (EGFR (T790M/L858R)) was < 0.5 nM, the IC50 (EGFR (WT)) was 1 nM and the GI50 [2] was 66 nM. For the same molecule, the GI50 [3] was 800 nM and the IC50 (EGFR (d746-750)) was < 0.15 nM.
With `C=C1c2c(-c3cnc4ccccc4c3)c3c(N)ncnc3n2C[C@H]1NC(=O)C#CC` [Example 9, (S)—N-(4-amino-6-methylene-5-(quinolin-3-yl)-7,8-dihydro-6H-pyrimido[5,4-b]pyrrolizin-7-yl)but-2-ynamide] the IC50 (EGFR (d746-750/T790M)) was 0.45 nM, the GI50 [1] was 4200 nM and the IC50 (EGFR (L858R)) was 5.9 nM. It also gave an IC50 (EGFR (T790M/L858R)) of 2.1 nM, an IC50 (EGFR (WT)) of 52 nM and a GI50 [2] of 7.5 nM. For the same molecule, the GI50 [3] was 770 nM and the IC50 (EGFR (d746-750)) was 2.3 nM.
With `C=C1c2c(-c3cnc4ccccc4c3)c3c(N)ncnc3n2C[C@H]1NC(=O)/C=C/CN(CC)CC` [Example 10, (S,E)-N-(4-amino-6-methylene-5-(quinolin-3-yl)-7,8-dihydro-6H-pyrimido[5,4-b]pyrrolizin-7-yl)-4-(diethylamino)but-2-enamide] the IC50 (EGFR (d746-750/T790M)) was 0.61 nM, the GI50 [1] was 4400 nM and the IC50 (EGFR (L858R)) was 2.6 nM. For the same molecule, the IC50 (EGFR (T790M/L858R)) was 1.5 nM, the IC50 (EGFR (WT)) was 22 nM and the GI50 [2] was 8.1 nM. The GI50 [3] was 310 nM and the IC50 (EGFR (d746-750)) was 1.8 nM.
With `C=C1c2c(-c3cnc4ccccc4c3)c3c(N)ncnc3n2C[C@H]1NC(=O)/C=C/CN(C)CC` [Example 11, (S,E)-N-(4-amino-6-methylene-5-(quinolin-3-yl)-7,8-dihydro-6H-pyrimido[5,4-b]pyrrolizin-7-yl)-4-(ethyl(methyl)amino)but-2-enamide] the IC50 (EGFR (d746-750/T790M)) was 0.32 nM, the GI50 [1] was 3900 nM and the IC50 (EGFR (L858R)) was 1.4 nM. It also gave an IC50 (EGFR (T790M/L858R)) of 0.76 nM, an IC50 (EGFR (WT)) of 12 nM and a GI50 [2] of 9.7 nM. For the same molecule, the GI50 [3] was 260 nM and the IC50 (EGFR (d746-750)) was 0.88 nM.

From patent US9758526B2, “Quinoline-substituted compound” (TAIHO PHARMACEUTICAL CO., LTD., priority 2013, dated 2017)
